How the values were obtained:
[1] = molecular target: AP2-associated protein kinase 1 (Homo sapiens) (UniProt Q2M2I8); conditions: Compound concentration 100.0 nM
[2] = molecular target: Bone morphogenetic protein receptor type-2 (Homo sapiens) (UniProt Q13873); conditions: Compound concentration 100.0 nM
[3] = molecular target: Mitotic checkpoint serine/threonine-protein kinase BUB1 (Homo sapiens) (UniProt O43683); conditions: Compound concentration 100.0 nM
[4] = molecular target: Calcium/calmodulin-dependent protein kinase type II subunit beta (Homo sapiens) (UniProt Q13554); conditions: Compound concentration 100.0 nM
[5] = molecular target: Cyclin-dependent kinase 2 (Homo sapiens) (UniProt P24941); conditions: Compound concentration 100.0 nM
[6] = molecular target: Cyclin-dependent kinase-like 5 (Homo sapiens) (UniProt O76039); conditions: Compound concentration 100.0 nM
[7] = molecular target: Dual specificity protein kinase CLK1 (Homo sapiens) (UniProt P49759); conditions: Compound concentration 100.0 nM
[8] = molecular target: Dual specificity protein kinase CLK4 (Homo sapiens) (UniProt Q9HAZ1); conditions: Compound concentration 100.0 nM
[9] = molecular target: Macrophage colony-stimulating factor 1 receptor (Homo sapiens) (UniProt P07333); conditions: Compound concentration 100.0 nM
[10] = molecular target: Discoidin domain-containing receptor 2 (Homo sapiens) (UniProt Q16832); conditions: Compound concentration 100.0 nM
[11] = molecular target: Serine/threonine-protein kinase 17A (Homo sapiens) (UniProt Q9UEE5); conditions: Compound concentration 100.0 nM
[12] = molecular target: Dual specificity tyrosine-phosphorylation-regulated kinase 2 (Homo sapiens) (UniProt Q92630); conditions: Compound concentration 100.0 nM
[13] = molecular target: Ephrin type-A receptor 7 (Homo sapiens) (UniProt Q15375); conditions: Compound concentration 100.0 nM
[14] = molecular target: Mitogen-activated protein kinase 6 (Homo sapiens) (UniProt Q16659); conditions: Compound concentration 100.0 nM
[15] = test system: Receptor-type tyrosine-protein kinase FLT3 (Homo sapiens), P36888 [K663Q]; conditions: Compound concentration 100.0 nM
[16] = molecular target: Glycogen synthase kinase-3 alpha (Homo sapiens) (UniProt P49840); conditions: Compound concentration 100.0 nM
[17] = molecular target: Mitogen-activated protein kinase 9 (Homo sapiens) (UniProt P45984); conditions: Compound concentration 100.0 nM
[18] = molecular target: Mitogen-activated protein kinase 10 (Homo sapiens) (UniProt P53779); conditions: Compound concentration 100.0 nM
[19] = molecular target: Mast/stem cell growth factor receptor Kit (Homo sapiens) (UniProt P10721); conditions: Compound concentration 100.0 nM
[20] = test system: Mast/stem cell growth factor receptor Kit (Homo sapiens), P10721 [D816V]; conditions: Compound concentration 100.0 nM
[21] = molecular target: MAP/microtubule affinity-regulating kinase 3 (Homo sapiens) (UniProt P27448); conditions: Compound concentration 100.0 nM
[22] = molecular target: Microtubule-associated serine/threonine-protein kinase 1 (Homo sapiens) (UniProt Q9Y2H9); conditions: Compound concentration 100.0 nM
[23] = molecular target: Myosin light chain kinase (Homo sapiens) (UniProt Q32MK0); conditions: Compound concentration 100.0 nM
[24] = molecular target: Myosin-IIIa (Homo sapiens) (UniProt Q8NEV4); conditions: Compound concentration 100.0 nM
[25] = molecular target: Serine/threonine-protein kinase Nek5 (Homo sapiens) (UniProt Q6P3R8); conditions: Compound concentration 100.0 nM
[26] = molecular target: Serine/threonine-protein kinase NLK (Homo sapiens) (UniProt Q9UBE8); conditions: Compound concentration 100.0 nM
[27] = molecular target: 3-phosphoinositide-dependent protein kinase 1 (Homo sapiens) (UniProt O15530); conditions: Compound concentration 100.0 nM
[28] = test system: Phosphatidylinositol 4,5-bisphosphate 3-kinase catalytic subunit alpha isoform (Homo sapiens), P42336 [I800L]; conditions: Compound concentration 100.0 nM
[29] = molecular target: Serine/threonine-protein kinase PLK4 (Homo sapiens) (UniProt O00444); conditions: Compound concentration 100.0 nM
[30] = molecular target: cAMP-dependent protein kinase catalytic subunit PRKX (Homo sapiens) (UniProt P51817); conditions: Compound concentration 100.0 nM
[31] = molecular target: RAF proto-oncogene serine/threonine-protein kinase (Homo sapiens) (UniProt P04049); conditions: Compound concentration 100.0 nM
[32] = molecular target: Ribosomal protein S6 kinase alpha-2 (Homo sapiens) (UniProt Q15349); conditions: Compound concentration 100.0 nM
[33] = molecular target: Ribosomal protein S6 kinase alpha-6 (Homo sapiens) (UniProt Q9UK32); conditions: Compound concentration 100.0 nM
[34] = molecular target: SRSF protein kinase 2 (Homo sapiens) (UniProt P78362); conditions: Compound concentration 100.0 nM
[35] = molecular target: Serine/threonine-protein kinase TAO2 (Homo sapiens) (UniProt Q9UL54); conditions: Compound concentration 100.0 nM
[36] = molecular target: Tyrosine-protein kinase Tec (Homo sapiens) (UniProt P42680); conditions: Compound concentration 100.0 nM
[37] = molecular target: TGF-beta receptor type-2 (Homo sapiens) (UniProt P37173); conditions: Compound concentration 100.0 nM
[38] = molecular target: Angiopoietin-1 receptor (Homo sapiens) (UniProt Q02763); conditions: Compound concentration 100.0 nM
[39] = molecular target: BDNF/NT-3 growth factors receptor (Homo sapiens) (UniProt Q16620); conditions: Compound concentration 100.0 nM
[40] = molecular target: Tyrosine-protein kinase TXK (Homo sapiens) (UniProt P42681); conditions: Compound concentration 100.0 nM
[41] = molecular target: Serine/threonine-protein kinase ULK2 (Homo sapiens) (UniProt Q8IYT8); conditions: Compound concentration 100.0 nM
[42] = molecular target: D(1B) dopamine receptor (Homo sapiens) (UniProt P21918); conditions: Compound concentration 10.0 uM
[43] = molecular target: GABA-A receptor; anion channel (Rattus norvegicus) (UniProt O09028+P15431+P18506+P18508+P19969+P20236+P23574+P23576+P28471+P28473+P30191+P62813+P63079+P63138+Q91ZM7+Q9ES14); conditions: Compound concentration 10.0 uM
Histamine H1 receptor = Histamine H1 receptor (Homo sapiens, UniProt P35367); conditions: Compound concentration 10.0 uM
Histamine H1 receptor, sequence (P35367 whole entry): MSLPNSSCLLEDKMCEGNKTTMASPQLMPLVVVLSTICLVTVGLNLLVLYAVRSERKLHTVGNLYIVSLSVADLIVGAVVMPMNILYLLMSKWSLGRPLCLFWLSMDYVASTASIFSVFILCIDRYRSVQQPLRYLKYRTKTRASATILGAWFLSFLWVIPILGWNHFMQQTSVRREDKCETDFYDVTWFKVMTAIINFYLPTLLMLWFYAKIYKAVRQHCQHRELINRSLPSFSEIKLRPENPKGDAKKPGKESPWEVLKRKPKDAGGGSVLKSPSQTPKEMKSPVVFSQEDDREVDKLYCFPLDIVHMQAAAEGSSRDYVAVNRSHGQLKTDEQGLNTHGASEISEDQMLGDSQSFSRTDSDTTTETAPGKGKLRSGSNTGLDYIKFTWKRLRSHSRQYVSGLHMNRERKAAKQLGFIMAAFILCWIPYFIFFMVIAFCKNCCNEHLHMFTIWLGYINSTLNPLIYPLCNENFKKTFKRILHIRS

Serine/threonine-protein kinase Nek5 (Homo sapiens), sequence (Q6P3R8 whole entry): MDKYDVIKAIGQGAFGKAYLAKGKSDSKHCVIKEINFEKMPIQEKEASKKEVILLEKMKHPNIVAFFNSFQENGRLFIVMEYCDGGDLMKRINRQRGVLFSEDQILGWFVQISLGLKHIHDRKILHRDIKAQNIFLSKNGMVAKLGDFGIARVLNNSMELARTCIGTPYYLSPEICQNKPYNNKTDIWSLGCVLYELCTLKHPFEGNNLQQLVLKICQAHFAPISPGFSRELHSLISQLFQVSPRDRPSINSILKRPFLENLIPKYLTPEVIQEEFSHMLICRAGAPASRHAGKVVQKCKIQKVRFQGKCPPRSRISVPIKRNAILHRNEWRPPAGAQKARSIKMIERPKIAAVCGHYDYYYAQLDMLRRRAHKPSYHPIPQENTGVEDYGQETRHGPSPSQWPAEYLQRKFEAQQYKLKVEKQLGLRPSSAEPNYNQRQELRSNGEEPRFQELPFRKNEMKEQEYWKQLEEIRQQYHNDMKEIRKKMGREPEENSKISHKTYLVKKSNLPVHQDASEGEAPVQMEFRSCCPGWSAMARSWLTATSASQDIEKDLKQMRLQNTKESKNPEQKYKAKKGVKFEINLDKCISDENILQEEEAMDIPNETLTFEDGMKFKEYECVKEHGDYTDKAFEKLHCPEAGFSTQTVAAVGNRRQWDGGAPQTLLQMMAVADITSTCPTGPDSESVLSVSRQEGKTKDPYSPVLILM
MAP/microtubule affinity-regulating kinase 3 (Homo sapiens), sequence (P27448 whole entry, looked up): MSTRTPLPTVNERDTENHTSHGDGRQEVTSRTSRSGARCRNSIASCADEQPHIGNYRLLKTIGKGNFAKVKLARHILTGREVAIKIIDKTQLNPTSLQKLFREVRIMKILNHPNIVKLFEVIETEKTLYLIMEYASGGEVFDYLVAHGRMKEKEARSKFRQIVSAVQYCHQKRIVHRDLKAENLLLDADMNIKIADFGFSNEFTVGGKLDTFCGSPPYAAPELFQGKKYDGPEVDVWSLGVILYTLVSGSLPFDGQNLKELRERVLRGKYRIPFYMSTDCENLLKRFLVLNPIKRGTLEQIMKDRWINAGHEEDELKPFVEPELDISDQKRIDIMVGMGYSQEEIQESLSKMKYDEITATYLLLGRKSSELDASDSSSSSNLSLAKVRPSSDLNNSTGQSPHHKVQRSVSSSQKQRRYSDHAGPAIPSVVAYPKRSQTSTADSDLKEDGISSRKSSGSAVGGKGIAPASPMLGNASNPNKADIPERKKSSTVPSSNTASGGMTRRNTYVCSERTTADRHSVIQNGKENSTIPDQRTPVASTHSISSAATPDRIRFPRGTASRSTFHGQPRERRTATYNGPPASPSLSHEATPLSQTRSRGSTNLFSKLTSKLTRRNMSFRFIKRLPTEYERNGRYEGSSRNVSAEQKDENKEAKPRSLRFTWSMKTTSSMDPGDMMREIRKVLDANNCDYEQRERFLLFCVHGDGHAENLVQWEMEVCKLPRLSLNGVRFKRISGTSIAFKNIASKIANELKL
Serine/threonine-protein kinase ULK2 (Homo sapiens), sequence (Q8IYT8 whole entry): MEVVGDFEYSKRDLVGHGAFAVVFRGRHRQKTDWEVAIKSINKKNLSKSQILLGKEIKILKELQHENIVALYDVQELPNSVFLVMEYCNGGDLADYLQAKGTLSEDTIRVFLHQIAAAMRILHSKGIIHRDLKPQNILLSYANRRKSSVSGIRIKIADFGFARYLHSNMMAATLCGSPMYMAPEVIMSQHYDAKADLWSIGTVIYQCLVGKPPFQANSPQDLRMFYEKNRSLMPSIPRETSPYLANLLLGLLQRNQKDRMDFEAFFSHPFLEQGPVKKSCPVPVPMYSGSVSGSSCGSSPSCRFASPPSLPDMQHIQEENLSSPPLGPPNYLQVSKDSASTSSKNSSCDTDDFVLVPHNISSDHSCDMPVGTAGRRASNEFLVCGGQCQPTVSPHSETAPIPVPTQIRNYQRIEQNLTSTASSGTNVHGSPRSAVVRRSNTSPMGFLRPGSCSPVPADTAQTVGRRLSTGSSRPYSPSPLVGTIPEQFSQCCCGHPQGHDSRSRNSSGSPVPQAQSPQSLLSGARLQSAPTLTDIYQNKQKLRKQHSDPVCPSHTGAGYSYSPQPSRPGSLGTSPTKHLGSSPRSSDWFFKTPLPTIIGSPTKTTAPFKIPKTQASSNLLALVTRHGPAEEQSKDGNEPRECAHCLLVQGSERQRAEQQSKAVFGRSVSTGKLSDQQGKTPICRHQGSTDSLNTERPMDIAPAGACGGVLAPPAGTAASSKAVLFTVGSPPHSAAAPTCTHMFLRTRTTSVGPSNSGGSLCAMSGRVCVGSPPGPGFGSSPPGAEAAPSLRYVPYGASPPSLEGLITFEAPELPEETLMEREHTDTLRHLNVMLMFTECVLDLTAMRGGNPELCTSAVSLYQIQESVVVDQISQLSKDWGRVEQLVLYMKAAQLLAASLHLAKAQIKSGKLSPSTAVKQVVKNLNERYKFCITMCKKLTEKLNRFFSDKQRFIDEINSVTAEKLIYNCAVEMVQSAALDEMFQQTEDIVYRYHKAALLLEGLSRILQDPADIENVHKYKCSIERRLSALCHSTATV
Macrophage colony-stimulating factor 1 receptor (Homo sapiens), sequence (P07333 whole entry, the tested form may be a part): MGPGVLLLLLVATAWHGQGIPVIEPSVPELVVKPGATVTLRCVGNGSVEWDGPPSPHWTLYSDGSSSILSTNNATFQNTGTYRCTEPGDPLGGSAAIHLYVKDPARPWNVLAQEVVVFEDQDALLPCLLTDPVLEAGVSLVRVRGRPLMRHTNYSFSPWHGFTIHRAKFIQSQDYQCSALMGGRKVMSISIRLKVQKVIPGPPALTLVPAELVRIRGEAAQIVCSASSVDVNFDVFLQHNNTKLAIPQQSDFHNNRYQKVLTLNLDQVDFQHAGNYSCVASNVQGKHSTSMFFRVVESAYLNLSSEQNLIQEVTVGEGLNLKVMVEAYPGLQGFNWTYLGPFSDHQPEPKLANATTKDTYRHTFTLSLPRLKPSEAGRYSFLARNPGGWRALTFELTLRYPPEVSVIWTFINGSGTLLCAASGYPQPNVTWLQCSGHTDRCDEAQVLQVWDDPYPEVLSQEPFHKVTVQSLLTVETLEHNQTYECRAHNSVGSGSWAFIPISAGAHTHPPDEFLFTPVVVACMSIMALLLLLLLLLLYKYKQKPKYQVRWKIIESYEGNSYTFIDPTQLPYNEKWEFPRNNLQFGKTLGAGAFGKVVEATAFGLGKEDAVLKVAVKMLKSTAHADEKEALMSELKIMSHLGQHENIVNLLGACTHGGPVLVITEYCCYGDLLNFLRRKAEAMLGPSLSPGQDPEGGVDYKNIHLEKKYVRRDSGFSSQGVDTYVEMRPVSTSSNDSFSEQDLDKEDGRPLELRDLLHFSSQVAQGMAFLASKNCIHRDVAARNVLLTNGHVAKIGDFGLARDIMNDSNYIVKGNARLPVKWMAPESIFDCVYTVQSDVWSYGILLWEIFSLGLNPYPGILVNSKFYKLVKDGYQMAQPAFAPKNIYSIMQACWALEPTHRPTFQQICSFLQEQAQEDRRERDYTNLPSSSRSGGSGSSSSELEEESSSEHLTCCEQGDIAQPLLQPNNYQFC
Bone morphogenetic protein receptor type-2 (Homo sapiens), sequence (Q13873 whole entry): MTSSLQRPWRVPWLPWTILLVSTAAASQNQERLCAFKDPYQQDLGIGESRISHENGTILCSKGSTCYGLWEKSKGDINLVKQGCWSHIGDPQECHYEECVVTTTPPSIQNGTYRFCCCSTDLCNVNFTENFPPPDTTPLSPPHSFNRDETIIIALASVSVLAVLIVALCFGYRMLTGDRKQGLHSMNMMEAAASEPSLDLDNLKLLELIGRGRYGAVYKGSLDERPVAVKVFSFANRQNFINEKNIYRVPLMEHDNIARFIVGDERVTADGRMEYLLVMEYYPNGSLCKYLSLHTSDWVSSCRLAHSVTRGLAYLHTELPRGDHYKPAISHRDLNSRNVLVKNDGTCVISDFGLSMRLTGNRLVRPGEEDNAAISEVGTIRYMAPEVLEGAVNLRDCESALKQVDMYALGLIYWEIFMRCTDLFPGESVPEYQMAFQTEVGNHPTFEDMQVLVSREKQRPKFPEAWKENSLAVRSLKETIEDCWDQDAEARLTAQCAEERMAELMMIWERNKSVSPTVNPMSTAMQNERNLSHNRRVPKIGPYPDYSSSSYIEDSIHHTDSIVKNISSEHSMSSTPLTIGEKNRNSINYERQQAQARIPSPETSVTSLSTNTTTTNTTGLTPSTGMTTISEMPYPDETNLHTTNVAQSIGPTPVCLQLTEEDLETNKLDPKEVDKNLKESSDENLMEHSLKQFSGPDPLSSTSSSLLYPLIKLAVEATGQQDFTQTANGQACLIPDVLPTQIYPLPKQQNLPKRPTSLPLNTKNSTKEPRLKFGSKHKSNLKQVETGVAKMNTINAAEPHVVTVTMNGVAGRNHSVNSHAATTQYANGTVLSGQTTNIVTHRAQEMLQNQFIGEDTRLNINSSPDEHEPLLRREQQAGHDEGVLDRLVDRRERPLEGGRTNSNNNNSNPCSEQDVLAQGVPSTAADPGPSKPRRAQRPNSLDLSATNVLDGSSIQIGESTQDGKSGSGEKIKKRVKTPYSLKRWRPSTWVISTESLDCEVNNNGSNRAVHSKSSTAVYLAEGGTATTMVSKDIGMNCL

## Nc1c(C(=O)NCc2ccc(C(=O)NCCCC3CCCCC3)cc2)cnn1-c1ccccc1 [SR-318]
[1]
  residual activity: 100%
[2]
  residual activity: 100%
[3]
  residual activity: 86%
[4]
  residual activity: 100%
[5]
  residual activity: 96%
[6]
  residual activity: 100%
[7]
  residual activity: 100%
[8]
  residual activity: 96%
[9]
  residual activity: 91%
[10]
  residual activity: 56%
[11]
  residual activity: 100%
[12]
  residual activity: 97%
[13]
  residual activity: 100%
[14]
  residual activity: 92%
[15]
  residual activity: 100%
[16]
  residual activity: 100%
[17]
  residual activity: 100%
[18]
  residual activity: 100%
[19]
  residual activity: 70%
[20]
  residual activity: 100%
[21]
  residual activity: 78%
[22]
  residual activity: 100%
[23]
  residual activity: 100%
[24]
  residual activity: 100%
[25]
  residual activity: 99%
[26]
  residual activity: 96%
[27]
  residual activity: 100%
[28]
  residual activity: 96%
[29]
  residual activity: 100%
[30]
  residual activity: 87%
[31]
  residual activity: 100%
[32]
  residual activity: 90%
[33]
  residual activity: 61%
[34]
  residual activity: 100%
[35]
  residual activity: 100%
[36]
  residual activity: 100%
[37]
  residual activity: 99%
[38]
  residual activity: 100%
[39]
  residual activity: 85%
[40]
  residual activity: 83%
[41]
  residual activity: 100%
[42]
  inhibition: 28.4%
[43]
  inhibition: 21.7%
Histamine H1 receptor
  inhibition: 14.7%

## O=C(NCCCC1CCCCC1)c1ccc(CNC(=O)c2cnn(-c3ccccc3)c2C(F)(F)F)cc1 [SR-321]
[1]
  residual activity: 100%
[2]
  residual activity: 100%
[3]
  residual activity: 100%
[4]
  residual activity: 96%
[5]
  residual activity: 96%
[6]
  residual activity: 100%
[7]
  residual activity: 96%
[8]
  residual activity: 100%
[9]
  residual activity: 100%
[10]
  residual activity: 100%
[11]
  residual activity: 100%
[12]
  residual activity: 100%
[13]
  residual activity: 86%
[14]
  residual activity: 100%
[15]
  residual activity: 100%
[16]
  residual activity: 100%
[17]
  residual activity: 85%
[18]
  residual activity: 100%
[19]
  residual activity: 100%
[20]
  residual activity: 100%
[21]
  residual activity: 94%
[22]
  residual activity: 88%
[23]
  residual activity: 92%
[24]
  residual activity: 98%
[25]
  residual activity: 100%
[26]
  residual activity: 100%
[27]
  residual activity: 100%
[28]
  residual activity: 70%
[29]
  residual activity: 96%
[30]
  residual activity: 100%
[31]
  residual activity: 99%
[32]
  residual activity: 96%
[33]
  residual activity: 92%
[34]
  residual activity: 100%
[35]
  residual activity: 89%
[36]
  residual activity: 94%
[37]
  residual activity: 100%
[38]
  residual activity: 100%
[39]
  residual activity: 100%
[40]
  residual activity: 100%
[41]
  residual activity: 100%
[42]
  inhibition: 23.2%
[43]
  inhibition: -4.39%
Histamine H1 receptor
  inhibition: 63%
